In brackets after ≈: the same amount, converted by molar mass. Like-named read-outs stand apart in the source and are kept apart here.
What was measured:
[1] = tested on: Mycobacterium tuberculosis Ra; assay: XTT assay, anti-mycobacterial activity; assay type: cell-based, M. tuberculosis H37Ra (ATCC 25177); settings: for inhibition at 100 µg/mL: inhibition at 100 μg/ml, 8th day of incubation
Description: M. tuberculosis H37Ra (ATCC 25177) cells, obtained from MTCC (Chandigarh, India), were grown to logarithmic phase (O.D, 0.595˜1.0) in a defined medium (M. pheli medium) under aerobic conditions in a shaker incubator (Thermo Electron Corporation Model 481) maintained at 150 rpm and 37° C. After growth, the culture was sonicated for 2 min using water bath sonicator. Sonicated cells were used for inoculation in micro plate wells. […] of culture containing ˜1×10^5 cells/ml was added to each well of 96 well plates. Camptothecanoid 1, 2 and 3 and Phthalate, […], dissolved in DMSO (Sigma), were added to the wells to attain a final concentration of 100 µg/ml respectively for screening. Then, the plate was incubated in a CO2 incubator at 37° C. The plate was taken out on the 8th day of incubation to measure the viable cell counts. The optical density of the culture was measured before addition of XTT (Sigma) at 470 nm which was served as a blank for the MIC calculations. XTT, 200 µM, was added and incubated for 20 min at 37° C. after shaking for 1 min. After 20 min of incubation, 60 µM Menadione (Sigma) was added and incubated at 37° C. for 40 min after mixing of 1 min. Finally, the optical density of the suspension was measured at 470 nm by using microplate reader. Isoniazid (Sigma) was used as a positive control.

[2] = tested on: THP 1 cell line; assay: MTT cell proliferation assay; assay type: cell-based; settings: Homo sapiens, read-out: MTT assay against THP 1 cell line % Inhibition
Description: Camptothecanoid 1, 2 and 3 and Phthalate were tested for their inhibitory effect on THP-1 cells. About 10,000 cells were taken per well in 96-well tissue culture plates and treated with test samples at 100 μg/ml for 72 h. Vehicle control (DMSO, 1%) and positive control (Paclitaxel, 100 μg/ml) was run simultaneously. Cell proliferation was assessed with 10 μl from 5 mg/ml stock solution of tetrazolium salt (MTT) dissolved in cell culture medium and subsequently incubated for additional 1 h at 37° C., 5% of CO2 and 95% humidity in incubator. The violet coloured formazan crystals formed were solubilized in 200 μl of isopropanol and incubated for another 4 h. The optical density was read on a micro plate reader (Spectramax plus384 plate reader, Molecular Devices Inc) at 490 nm filter against a blank prepared from cell-free wells. Absorbance given by cells treated with the carrier DMSO alone was taken as 100% cell growth (Table 2).

[3] = tested on: Sitophilus oryzae and Rhizopertha dominica; assay: whole plant or invertebrate; assay type: in vivo
Description: The bioefficacy of the extracts were screened against S. oryzae and R. dominica on wheat at 1000 ppm. Required quantity of the extract dissolved in 6 ml of the solvent was pipetted over 60 gm wheat, taken in a 500 ml beaker. The grain was stirred with a glass rod to obtain uniform application. The control grain received the solvent alone. The treated grain was spread on petridish and kept overnight (12 hrs) for the solvent to evaporate. The 60 gm grain was divided into three lots of 20 gm each, taken in test tubes 25 mm diameter and 95 mm long.
Fifteen unsexed adults, 1-2 weeks old, of the rice weevil, Sitophilus oryzae and the lesser grain borer, Rhizopertha dominica were seeded into the tubes separately. The tubes were covered with muslin held by rubber bands. The mortality of the test insects was recorded after 1, 3, 7, 14 and 21 days. After the last count, the insects were discarded and the grain incubated to obtain the F1 progeny. The number of emerging progeny was recorded every second day till the emergence was complete. The progeny/adult day was calculated by Kazmaier et. al method. The progeny/adult day corrects for the reduction in the number of progeny due to adult mortality. A significant reduction in the progeny/adult day compared to the control indicates Insect Growth Regulating (IGR) activity, which is presented in Tables 1, 2 and 3.
Camptothecin obtained from Sigma Aldrich was assayed on wheat against S. oryzae and R. dominica as in example 1.

[4] = THP-1, inhibition at 100 μg/ml, 72 h

Q: What does the source list for CC[C@H](OC1OC(CO)C(O)C(O)C1O)c1cc2n(c(=O)c1C)Cc1cc3ccccc3nc1-2 (stereo partly shown) [Camptothecanoid 1]?
A: inhibition at 100 µg/mL [1]: 48.3%; inhibition at 100 µg/mL ([2]; THP-1, 72 h): 70.9%

Q: For CC[C@](O)(C(=O)O)c1cc2n(c(=O)c1COC(C)=O)Cc1cc3ccccc3nc1-2 [Camptothecanoid 2], which inhibition at 100 µg/mL [1] is on record?
A: The inhibition at 100 µg/mL was 88.4%.

Q: What about the inhibition at 100 µg/mL ([2]; THP-1, 72 h) of the same molecule?
A: The inhibition at 100 µg/mL was 87.5%.

Q: How did the inhibition at 100 µg/mL [1] turn out when CC[C@](O)(C(=O)O)c1cc2n(c(=O)c1COC(C)=O)Cc1cc3c(OC)cccc3nc1-2 [Camptothecanoid 3] was run?
A: The inhibition at 100 µg/mL was 59%.

Q: What about the inhibition at 100 µg/mL ([2]; THP-1, 72 h) of the same molecule?
A: Its inhibition at 100 µg/mL is 90.2%.

Q: Which results are given for CC[C@@]1(O)C(=O)OCc2c1cc1n(c2=O)Cc2cc3ccccc3nc2-1 [Camptothecin]?
A: No. of F1 progeny ([3]; 6.25 ppm on wheat): 00; No. of F1 progeny ([3]; 12.50 ppm on wheat): 00; adult mortality (in words) ([3]; 12.50 ppm on wheat): no adult mortality; No. days for 100% kill ([3]; 25 ppm on wheat): 21 days; No. of F1 progeny ([3]; 25 ppm on wheat): 00; No. days for 100% kill ([3]; 50 ppm on wheat): 14 days; No. of F1 progeny ([3]; 50 ppm on wheat): 00; No. days for 100% kill ([3]; 75 ppm on wheat): 7 days; No. of F1 progeny ([3]; 75 ppm on wheat): 00; No. days for 100% kill ([3]; 100 ppm on wheat): 3 days; No. of F1 progeny ([3]; 100 ppm on wheat): 00; mortality at 6.25 ppm ([3]; Sitophilus oryzae): 0%; mortality at 12.5 ppm ([3]; Sitophilus oryzae): 0%; mortality at 25 ppm ([3]; Sitophilus oryzae): 100%; mortality at 50 ppm ([3]; Sitophilus oryzae): 100%; mortality at 75 ppm ([3]; Sitophilus oryzae): 100%; mortality at 100 ppm ([3]; Sitophilus oryzae): 100%; inhibition at 12.5 ppm ([3]; Sitophilus oryzae, read-out: inhibition of F1 progeny): 100%

Q: With NNC(=O)c1ccncc1 [Isoniazid] as the molecule, how does the IC90 ([1]; read-out: IC90, XTT assay Mycobacterium tuberculosis Ra) read?
A: The IC90 was 0.05 µg/mL (≈ 0.365 µM).

Q: With CC(=O)O[C@H]1C(=O)[C@@]2(C)[C@H]([C@H](OC(=O)c3ccccc3)[C@]3(O)C[C@H](OC(=O)[C@H](O)[C@@H](NC(=O)c4ccccc4)c4ccccc4)C(C)=C1C3(C)C)[C@]1(OC(C)=O)CO[C@@H]1C[C@@H]2O [Paclitaxel] as the molecule, how does the inhibition at 100 µg/mL [2, 4] read?
A: Its inhibition at 100 µg/mL is 61%.

Q: Which inhibition at 100 µg/mL [1] does the source give for CCCCCCCC(CC)COC(=O)c1ccccc1C(=O)OCC(CC)CCCCCCC (stereo not shown) [Phthalate] here?
A: The inhibition at 100 µg/mL was 45.6%.

Q: And the inhibition at 100 µg/mL [2, 4]?
A: Its inhibition at 100 µg/mL is 20.1%.
